{"source": "paper PMC7072329", "about": "“Discovery of Kynurenines Containing Oligopeptides as Potent Opioid Receptor Agonists” (Biomolecules, 2020)", "key": {"CD-1 male mice": {"system": "CD-1 male mice", "assay": "tail flick test", "format": "in vivo", "settings": "i.c.v., 10 μg/10 μL, 15 to 120 min", "protocol": "In our experiments, we used CD-1 male mice (Harlan, Italy, 25–30 g) maintained in colony, housed in cages (7 mice per cage) under standard light/dark cycle (from 7:00 a.m. to 7:00 p.m.), temperature (21 ± 1 °C) and relative humidity (60% ± 10%) for at least 1 week. Food and water were available ad libitum. The Service for Biotechnology and Animal Welfare of the Istituto Superiore di Sanità and the Italian Ministry of Health authorized the experimental protocol according to Legislative Decree 26/14.\nDMSO was purchased from Merck (Rome, Italy). Peptides solutions were freshly prepared using saline containing 0.9% NaCl and DMSO in the ratio DMSO/saline 1:5 v/v every experimental day. […]\nThe tail flick latency was obtained using a commercial unit (Ugo Basile, Gemonio, Italy), consisting of an infrared radiant light source (100 W, 15 V bulb) focused onto a photocell utilizing an aluminum parabolic mirror. […] Radiant heat was focused 3–4 cm from the tip of the tail, and the latency (s) of the tail withdrawal to the thermal stimulus was recorded. […] The baseline latency was calculated as mean of three readings recorded before testing at intervals of 15 min and the time course of latency determined at 15, 30, 45, 60, 90, and 120 min after treatment. […]\nExperimental data were expressed as mean ± s.e.m. […]"}, "[1]": {"assay": "stability in human plasma", "format": "in vitro ADME", "settings": "37 °C", "protocol": "Five microliters of K6 (500 μg in 250 μL of water) were added to 45 μL of fresh human plasma, then incubated at 37 ± 1 °C. Prepared samples were removed at several designated time points and incubation was stopped by adding an equal volume of the sequencing mixture (5% aqueous ZnSO4 solution, MeOH, and ACN; 5:3:2), which precipitated proteins, to achieve a final concentration of 100 μg/mL. The mixture was vortexed and centrifuged at 12,000× g for 5 min, then 20 μL of clear supernatant was directly injected into the HPLC system (Waters model 600 solvent pump and 2996 photodiode array detector, with XBridge BEH 130 C18, 4.6 × 250 mm, 5 μm). The samples were tested in three independents experiments (n = 3) and reported values represent the mean ± standard error (SEM). Data were analysed using simple regression analysis (significant deviation from zero: F1,13 = 171.9, p < 0.0001; Y = −0.9705 × X + 95.98).\nFive calibration standards were injected into the HPLC-UV/Vis system. HPLC analyses were performed on a Waters liquid chromatograph equipped with a model 600 solvent pump and a 2996 photodiode array detector, and the mobile phase was degassed directly on-line by using Degassex, mod. DG-4400 (Phenomenex, Torrance, CA, USA). Empower v2.0 Software (Waters Spa, Milford, MA, USA) was used for data acquisition and elaboration. A reversed-phase packing column (XBridge BEH 130 C18, 4.6 × 250 mm, 5 μm; Waters Spa, Milford, MA, USA) was employed for the separation and the column was held at room temperature (22 ± 1 °C). K6 remaining concentrations at different times are reported below. For quantitative analyses, selective detection was performed at 210 nm. Gradient elution mode was performed using a mobile phase containing a […] water-ACN ratio as starting conditions and gradient program as reported. […]\nAll the sample solutions were previously centrifuged and 20 µL of the supernatant was injected into the HPLC-UV/Vis system. Calibration curves from 2 to 10 μg/mL were calculated by analyzing five non-zero concentration standards prepared in freshly spiked plasma solution in triplicate and extracted. All quantitative analyses were performed at 210 nm. Calibration curves were linear with r2 values always greater than 0.988 (n = 3). In reported chromatographic conditions, the retention times for K6 was 16.45 minutes (± 0.4, n = 20), the substance identity was confirmed by LS-MS analysis.\nTime ( minutes) K6 Concentration (µg/mL) K6% of degradation"}}, "note": "Where a SMILES comes first, the peptide text is derived from it. [ ]: non-standard residue; d: D form. Kyn = Nc1ccccc1C(=O)C[C@H](N)C(=O)O", "data": [{"compound": "C[C@@H](NC(=O)[C@@H](N)Cc1ccc(O)cc1)C(=O)NCC(=O)N[C@@H](Cc1ccccc1)C(=O)N[C@@H](CC(=O)c1ccccc1N)C(N)=O", "note": "[Peptide K6] (H-Y[dA]GF[Kyn]-NH2)", "values": [{"measurement": "effect on time of response to thermal nociceptive stimuli (tail flick)", "setting": "CD-1 male mice", "value": "greatly increase the time of response to thermal nociceptive stimuli"}, {"measurement": "K6% of degradation", "setting": "[1]; 0 minutes", "value": 0, "unit": "%"}, {"measurement": "metabolised at 5 min, 200 μg/mL", "setting": "[1]; fresh human plasma, 5 minutes, read-out: K6% of degradation", "value": 7, "unit": "%"}, {"measurement": "metabolised at 10 min, 200 μg/mL", "setting": "[1]; fresh human plasma, 10 minutes, read-out: K6% of degradation", "value": 15, "unit": "%"}, {"measurement": "metabolised at 0.5 h, 200 μg/mL", "setting": "[1]; fresh human plasma, 30 minutes, read-out: K6% of degradation", "value": 36, "unit": "%"}, {"measurement": "metabolised at 1 h, 200 μg/mL", "setting": "[1]; fresh human plasma, 60 minutes, read-out: K6% of degradation", "value": 56, "unit": "%"}, {"measurement": "half-life at 200 μg/mL", "setting": "[1]; plasma (fresh), linear regression, read-out: t1/2 in human plasma", "value": 47, "unit": "min"}]}]}
